{"source": "patent US7098241B2", "about": "“Thiophene hydroxamic acid derivatives” (Hoffmann-La Roche Inc., priority 2002, dated 2006)", "key": {"[1]": {"test_system": "PC-3 prostate carcinoma cells xenograft", "test": "Antitumor activity in a PC-3 xenograft model", "assay_type": "in vivo, NMRI nude mice", "details": "15 days of treatment over 19 days, vs vehicle group", "description": "Determination of Antitumor Activity in a PC-3 Xenograft Model\nPC-3 prostate carcinoma cells were originally obtained from the NCI collection and were deposited after expansion in the Roche cell bank Penzberg. Tumor cell line was routinely cultured in RPMI 1640 Medium containing 10% FBS and 2 mM L-glutamine at 37° C. in a water-saturated atmosphere at 5% CO2. Culture passage was performed with trypsin/EDTA 1× (Roche Diagnostics) splitting twice a week. Cell passage 3 was used in the present study.\nAt the day of cell injection, cells were harvested from culture flasks (Greiner T 75), transferred into 50 ml culture medium, washed once and resuspended in PBS. After an additional washing with PBS, the final cell titer was measured with a Neubauer-Chamber. The tumor cell suspension (PBS) was vortexed carefully (to reduce cell aggregation) and kept on ice. The cell suspension was filled into a 1.0 ml syringe. To generate primary tumors, 2×10^6 PC-3 tumor cells in a volume of 100 μl PBS were injected subcutaneously into the right flank of each mouse (NMRI nude mice). After s.c. inoculation of tumor cells, measurable tumors developed in all animals. Mice were staged and randomized on day 10 according to the primary tumor dimensions. 15 days daily oral dosing was carried out using the compound of example 1 and compound 3 of WO 93/07148, WO 95/31977, U.S. Pat. No. 5,369,108 as test article. 90 male NMRI nude mice were divided into 6 study groups. Each group consisted of 15 male animals. The individual groups were given the test article, formulated as microsuspensions in 7.5% modified gelatin with 0.22% NaCl solution, once daily by oral route over 19 days (3 cycles of 5 days treatment and a 2-day drug free period each). The application volume was 10 ml/kg. The oral doses chosen were 25, 50, 100, and 200 mg/kg of example 1 and 200 mg/kg of compound 3 of patent '108. The study was terminated on day 28 after tumor cell injection when the vehicle group reached the termination criteria."}, "[2]": {"test_system": "HCT116 tumor cells (human colon adenocarcinoma) xenograft", "test": "Antitumor activity in a HCT116 xenograft model", "assay_type": "in vivo, NMRI nude male mice", "details": "21 dosing days over 29 days", "description": "Determination of Antitumor Activity in a HCT116 Xenograft Model\nThe HCT116 cell line (NCI line) is derived from a human colon adenocarcinoma and kept in an in house working cell bank. Cells were cultured in RPMI1640/2 mM L-glutamin medium supplemented with 10% heat inactivated FCS. For inoculation HCT116 tumor cells are removed (trypsin-EDTA, 50 U/mg) from culture flasks and transferred into culture medium (RPMI 1640, 10% heat inactivated FCS), washed and resuspended in sterile PBS to achieve a final cell concentration of 5×10^6/100 μl. Cell suspension was carefully mixed by regular shaking to avoid cell aggregation and filled into a 1.0 ml graded syringe. Tumor cell inoculation was performed under light anesthesia (Ethrane.) in the upper ventral quarter of right flank, i.e. between axilla of forelegs and midline region of NMRI nude male mice. In this site 5×10^6 HCT116 tumor cells were s.c. discharged in a volume of 100 μl PBS. All procedures were carried out under SPF conditions wearing appropriate clothings. After s.c. inoculation of tumor cells, measurable tumors developed in all animals. Mice were staged and randomized on day 10 according to the primary tumor dimensions. 21 days daily oral dosing was carried out using the compound of example 1 and compound 3 of WO 93/07148, WO 95/31977, U.S. Pat. No. 5,369,108 ('108 patent) as test article. 75 male NMRI nude mice were divided into 5 study groups. Each group consisted of 15 male animals. The individual groups were given the test article, formulated as microsuspensions in 7.5% modified gelatin with 0.22% NaCl solution, once daily by oral route over 29 days according to the following treatment scheme: 3 days treatment, 2 days drug holiday, 5 days treatment, 2 days drug holiday, 5 days treatment, 2 days drug holiday, 5 days treatment, 2 days drug holiday, 3 days treatment. The application volume was 10 ml/kg. The oral doses chosen were 50, 100, and 200 mg/kg of the compound of example 1 and 200 mg/kg of compound 3 of the '108 patent."}}}
{"molecule": "C[C@@H](NC(=O)c1ccc(C(=O)NO)s1)c1ccccc1", "note": "[Example 1, (R)-thiophene-2,5-dicarboxylic acid 2-hydroxyamide 5-[(1-phenyl-ethyl)-amide]]", "values": [{"measurement": "tumor weight inhibition", "setting": "[1]; 25 mg/kg oral once daily", "value": 15, "unit": "%"}, {"measurement": "tumor weight inhibition", "setting": "[1]; 50 mg/kg oral once daily", "value": 36, "unit": "%"}, {"measurement": "tumor weight inhibition", "setting": "[1]; 100 mg/kg oral once daily", "value": 51, "unit": "%"}, {"measurement": "tumor weight inhibition", "setting": "[1]; 200 mg/kg oral once daily", "value": 81, "unit": "%"}, {"measurement": "tumor weight inhibition", "setting": "[2]; 50 mg/kg oral once daily", "value": 40, "unit": "%"}, {"measurement": "tumor weight inhibition", "setting": "[2]; 100 mg/kg oral once daily", "value": 49, "unit": "%"}, {"measurement": "tumor weight inhibition", "setting": "[2]; 200 mg/kg oral once daily", "value": 87, "unit": "%"}]}
